Measured values reported in patent EP1988087A1, “Novel 5-cyano-prostacyclin derivatives and their use as agents for the treatment of autoimmune diseases” (Bayer Schering Pharma Aktiengesellschaft, priority 2007, dated 2008).

Biological target: EP4 receptor (Homo sapiens, UniProt P35408)
Assay: cAMP accumulation assay in cells expressing EP4 (Biological Example 1, diol derivative)
Assay type: cell-based
Settings: cAMP luminescence, mean of triplicate
Procedure: Commercial cAMP accumulation assays are typically competitive immunoassays in which free cAMP from cell lysates competes for antibody binding against a "labeled" cAMP molecule. This positive signal is generated in direct proportion to the amount of free cAMP. In our assays cAMP standards and samples are pipetted into the wells of a microplate. An antibody specific cAMP is added to the wells. A substrate is added to the wells and luminescence develops in proportion to the amount of cAMP which accumulated during treatment of cells which express the EP4 receptor with standards and samples. The intensity of the luminescence is measured in a luminometer.
The response of the EP4 expressing cells treated with the diol derivative is compared to Nileprost. Results shown are the mean of triplicate determinations.

Sequence of EP4 receptor (P35408 whole entry): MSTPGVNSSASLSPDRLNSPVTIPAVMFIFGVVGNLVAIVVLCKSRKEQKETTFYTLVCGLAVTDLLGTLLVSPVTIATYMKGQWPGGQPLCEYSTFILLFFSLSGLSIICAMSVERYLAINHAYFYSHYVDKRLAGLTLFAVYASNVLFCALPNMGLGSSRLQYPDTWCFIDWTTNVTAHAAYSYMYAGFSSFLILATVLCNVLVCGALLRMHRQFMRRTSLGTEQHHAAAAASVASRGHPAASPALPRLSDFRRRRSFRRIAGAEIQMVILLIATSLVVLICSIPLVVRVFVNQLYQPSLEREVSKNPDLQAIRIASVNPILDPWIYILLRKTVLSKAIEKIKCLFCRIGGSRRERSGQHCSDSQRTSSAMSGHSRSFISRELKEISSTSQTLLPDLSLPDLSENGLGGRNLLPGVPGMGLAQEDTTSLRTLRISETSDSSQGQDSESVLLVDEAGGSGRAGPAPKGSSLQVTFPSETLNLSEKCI

RLU - background (compound 0.010 nM): 0 RLU
RLU - background (compound 0.152 nM): 850786 RLU
RLU - background (compound 0.457 nM): 1291900 RLU
RLU - background (compound 1.372 nM): 1521826 RLU
RLU - background (compound 4.115 nM): 1626762 RLU
RLU - background (compound 12.346 nM): 1589698 RLU
RLU - background (compound 37.037 nM): 1312998 RLU
RLU - background (compound 111.111 nM): 1258626 RLU
RLU - background (compound 333.333 nM): 1648306 RLU
RLU - background (compound 1000.000 nM): 1635488 RLU
RLU - background (compound 3000.000 nM): 1625442 RLU
RLU - background (compound 9000.000 nM): 1599712 RLU
SMILES: CCCCC(C)[C@H](O)/C=C/[C@@H]1[C@H]2C/C(=C(\C#N)CCCC(=O)O)O[C@H]2C[C@H]1O (stereo partly drawn) [Nileprost, 5-cyano-16-methylprostacyclin]
